Results from article PMC3684613 (PLoS ONE, 2013).
Like-named read-outs stand apart in the source and are kept apart here.

Legend:
[1] = tested on: P. falciparum 3D7; set-up: method as in ChEMBL-NTD; settings: ref ChEMBL-NTD, cited from earlier work
[2] = tested on: P. falciparum 3D7; assay: DAPI stain fluorescent high content imaging assay, P. falciparum 3D7 (confirmatory screen, Avery); settings: Plasmodium falciparum; for EC50: 3D7, read-out: EC50_nM; for inhibition of growth at 5 µM: 3D7, read-out: percent_inh @ 5 uM
[3] = original screening data, source (GSK, GNF, StJude), several values separated by ';' in order of sources
[4] = values follow the order of the source (GNF; GSK; StJude)

EC50 [2] | SMILES | inhibition of growth at 5 µM [2] | other results
1330 nM | CCOc1cc2c(cc1OCC)C(c1cc(Cl)c(O)c(OCC)c1)NCC2 (stereo not drawn) [MMV000481] | 96% | EC50 ([1]; source StJude (SJ ids)): 3010 nM
1260 nM | CC(C)c1ccc(CNCC(O)c2ccccc2)cc1 (stereo not drawn) [MMV001049] | 96% | EC50 [1, 3]: 1350 nM
 | Cc1ccc(C)c(-c2csc(Nc3ccc(C)c(C)c3)n2)c1 [MMV007654] | 94% | EC50 [1, 4]: 493 nM
400 nM | Cc1cccc(Nc2nc(N)c3ccccc3n2)c1 [MMV019110] |  | EC50 ([1]; source GSK (TCMDC id)): 574 nM; inhibition of growth at 2 µM ([2]; 3D7, read-out: percent_inh @ 2 uM): 97%
 | CC(C)(C)c1ccc(C(=O)Nc2c3c(nn2-c2cccc(Cl)c2)CSC3)cc1 [MMV666123] | 93% | EC50 ([1]; source StJude (SJ ids)): 15000 nM
 | CCc1ccc(CNCC(O)c2ccccc2)cc1 (stereo not drawn) [MMV665812] | 97% | EC50 ([1]; source StJude): 2170 nM
 | CC(O)(c1ccc(Cl)cc1)C(CN1CCCCC1)c1ccccc1 (stereo not drawn) [MMV000620] | 94% | EC50 ([1]; source StJude): 916 nM
139 nM | COc1cccc(NC(=O)[C@H](C(C)C)n2c(=O)[nH]c3ccccc3c2=O)c1 [MMV665878] | 99% | EC50 ([1]; source GSK (TCMDC id)): 266 nM
1420 nM | Nc1ccc(-c2nc3cc(Cc4ccc5[nH]c(-c6ccc(N)cc6)nc5c4)ccc3[nH]2)cc1 [MMV665943] | 100% | EC50 ([1]; source GNF (GNF-Pf ids)): 243 nM; EC50 ([1]; source GSK (TCMDC ids)): 512 nM; EC50 ([1]; source StJude (SJ ids)): 1080 nM
142 nM | CN1CCN(c2ccc(Nc3c4ccccc4nc4ccccc34)cc2)CC1 [MMV006172] | 97% | EC50 ([1]; source GNF (GNF-Pf id)): 56.7 nM; EC50 ([1]; source GSK (TCMDC id)): 645 nM
906 nM | Cc1ccc(C(=O)c2oc3ccc4c(C)cc(=O)oc4c3c2C)cc1 [MMV086103] | 96% | EC50 [1, 4]: 1030 nM
 | CCCCCn1c(=N)n(CC(O)COc2cccc(C)c2)c2ccccc21 (stereo not drawn) [MMV000444] | 96% | EC50 ([1]; source StJude (SJ ids)): 2650 nM
646 nM | O=C(NC1CCN(Cc2ccccc2)CC1)c1cc(C(=O)NC2CCN(Cc3ccccc3)CC2)cc(C(=O)NC2CCN(Cc3ccccc3)CC2)c1 [MMV019881] | 98% | EC50 [1, 4]: 1040 nM
1360 nM | O=C(Nc1nc(-c2ccccn2)cs1)c1ccccc1Br [MMV665909] | 97% | EC50 ([1]; source StJude): 4530 nM
994 nM | CN1c2ccccc2N(C)C1c1ccc2c(c1)OCO2 [MMV666009] | 60% | EC50 ([1]; source GNF): 1120 nM
532 nM | COc1ccc(Nc2nc(NN=Cc3ccc(O)cc3)nc(Nc3ccc([N+](=O)[O-])cc3)n2)cc1 [MMV666689] | 98% | EC50 ([1]; source GSK): 1120 nM
660 nM | OC(CNC1CCCC1)Cn1c2ccccc2c2ccccc21 (stereo not drawn) [MMV000848] | 97% | EC50 [1, 3]: 1080 nM
 | CC(C)(C)CC(C)(C)NCC(O)COc1ccc2c(c1)CCC2 (stereo not drawn) [MMV665817] | 78% | EC50 ([1]; source StJude): 4420 nM
800 nM | Clc1cc(Br)ccc1-c1ccc(CNCC2CCNCC2)o1 [MMV019918] | 96% | EC50 [1, 3]: 1510 nM
1510 nM | CCOC(=O)C1=C(C)N=c2sc(=Cc3ccccc3O)c(=O)n2C1c1ccc(OC)c2ccccc12 (stereo not drawn) [MMV666604] | 97% | EC50 ([1]; source GSK (TCMDC ids)): 1260 nM
830 nM | COc1ccc(C(=O)NC(c2ccccc2Cl)c2cc(Cl)c3cccnc3c2O)cc1 (stereo not drawn) [MMV666022] | 96% | EC50 ([1]; source GNF (GNF-Pf ids)): 2370 nM
890 nM | O=C(NCc1ccco1)C1CCN(S(=O)(=O)c2ccc(Cl)cc2)CC1 [MMV006188] | 94% | EC50 ([1]; source GNF): 514 nM
345 nM | Fc1ccc2[nH]c3c(NCCCN4CCOCC4)ncnc3c2c1 [MMV019871] | 98% | EC50 ([1]; source GSK (TCMDC id)): 714 nM
663 nM | COc1ccc(CNC2CCN(c3ccc(NC(=O)c4cccc(Cl)c4)cc3)CC2)cc1OC [MMV666067] | 97% | EC50 ([1]; source GSK): 1020 nM
